Experimental data published in US20230390274A1 (EPIRIUM BIO INC., priority 2020, published 2023).

Biological target: 15-PGDH/HPGD (Homo sapiens (Human), UniProt P15428)
Assay: hPGDH inhibitor screening biochemical assay
Details: 10 nM 15-PGDH/HPGD, 15 μM PGE2, 0.25 mM NAD; read-out: hPGDH: Average IC50
Outline: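 10 nM recombinant 15-PGDH was preincubated with compound (10-point) for 10 min at 37° C. in 50 mM Tris-HCl pH 7.5, 0.01% Tween 20. Then 15 μM PGE2 and 0.25 mM NAD+ were added for 10 min at rt. NADH fluorescence (ex/em 340/485 nm) gave % inhibition versus 1% DMSO and a four-parameter IC50.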

Chain of 15-PGDH/HPGD (P15428 whole entry): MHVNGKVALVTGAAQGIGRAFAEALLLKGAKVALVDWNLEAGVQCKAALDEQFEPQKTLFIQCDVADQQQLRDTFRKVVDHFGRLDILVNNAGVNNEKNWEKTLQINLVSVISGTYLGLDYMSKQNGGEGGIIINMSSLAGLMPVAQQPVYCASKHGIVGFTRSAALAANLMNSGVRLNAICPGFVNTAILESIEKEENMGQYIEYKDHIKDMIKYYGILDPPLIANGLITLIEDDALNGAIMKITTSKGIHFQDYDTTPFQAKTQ

SMILES	IC50
N#Cc1ccc(-n2ccc3nc(C(=O)N4CCC(F)CC4)ccc32)cc1 [A-259, 4-(5-(4-fluoropiperidine-1-carbonyl)-1H-pyrrolo[3,2-b]pyridin-1-yl)benzonitrile]	≥ 1 µM
N#Cc1ccc(-n2ccc3cc(C(=O)N4CCC(F)CC4)ncc32)cc1 [A-260, 4-(5-(4-fluoropiperidine-1-carbonyl)-1H-pyrrolo[2,3-c]pyridin-1-yl)benzonitrile]	≥ 1 µM
O=C(O)c1ccc(-n2ccc3cc(C(=O)N4CCC(F)(F)CC4)cnc32)nc1 [A-264]	< 0.1 µM
CCNC(=O)c1ccc(-n2ccc3cc(C(=O)N4CCC(F)(F)CC4)cnc32)nc1 [A-268, 6-(5-(4,4-difluoropiperidine-1-carbonyl)-1H-pyrrolo[2,3-b]pyridin-1-yl)-N-ethylnicotinamide]	< 0.1 µM
NC[C@@H]1CN(c2ccc(-n3ccc4cc(C(=O)N5CCC(F)(F)CC5)cnc43)cn2)C(=O)O1 [A-269]	< 0.1 µM
CS(=O)(=O)NCCNC(=O)c1cccc(-n2ccc3cc(C(=O)N4CCC(F)(F)CC4)cnc32)c1 [A-271, 3-(5-(4,4-difluoropiperidine-1-carbonyl)-1H-pyrrolo[2,3-b]pyridin-1-yl)-N-(2-(methylsulfonamido)ethyl)benzamide]	< 0.1 µM
O=C(NC1CCS(=O)(=O)CC1)c1cc(Cl)cc(-n2ccc3cc(C(=O)N4CCC(F)(F)CC4)cnc32)c1 [A-272]	< 0.1 µM
NC(=O)c1cncc(-n2cc(Cl)c3cc(C(=O)N4CCC(F)(F)CC4)cnc32)c1 [A-273]	< 0.1 µM
NS(=O)(=O)c1cccc(-n2ccc3cc(C(=O)N4CCC(F)(F)CC4)cnc32)c1 [A-279]	< 0.1 µM
NS(=O)(=O)c1ccc(-n2ccc3cc(C(=O)N4CCC(F)(F)CC4)cnc32)cc1 [A-280]	< 0.1 µM
O=C(c1cnc2c(ccn2-c2cccc(C(=O)N3CCS(=O)(=O)C3)c2)c1)N1CCC(F)(F)CC1 [A-281, (4,4-difluoropiperidin-1-yl)(1-(3-(1,1-dioxidothiazolidine-3-carbonyl)phenyl)-1H-pyrrolo[2,3-b]pyridin-5-yl)methanone]	< 0.1 µM
N#Cc1cc(-n2ccc3cc(C(=O)N4CCC(F)(F)CC4)cnc32)cnc1O [A-286]	< 0.1 µM
O=C(c1cnc2c(ccn2-c2cc(Cl)cc(C(=O)N3CCS(=O)(=O)CC3)c2)c1)N1CCC(F)(F)CC1 [A-288]	< 0.1 µM
O=C(c1cnc2c(ccn2-c2ccc(-c3nn[nH]n3)cc2)c1)N1CCC(F)(F)CC1 [A-290, (1-(4-(2H-tetrazol-5-yl)phenyl)-1H-pyrrolo[2,3-b]pyridin-5-yl)(4,4-difluoropiperidin-1-yl)methanone]	< 0.1 µM
O=C(c1cnc2c(ccn2-c2cccc(-c3nn[nH]n3)c2)c1)N1CCC(F)(F)CC1 [A-291, (1-(3-(2H-tetrazol-5-yl)phenyl)-1H-pyrrolo[2,3-b]pyridin-5-yl)(4,4-difluoropiperidin-1-yl)methanone]	< 0.1 µM
CC(C)(O)CNC(=O)c1cc(Cl)cc(-n2ccc3cc(C(=O)N4CCC(F)(F)CC4)cnc32)c1 [A-293]	< 0.1 µM
O=C(c1cnc2c(c1)c(Cl)cn2-c1cnccn1)N1CCC(F)CC1 [A-295]	< 0.1 µM
Cc1cncc(-n2cc(Cl)c3cc(C(=O)N4CCC(F)CC4)cnc32)n1 [A-296, (3-chloro-1-(6-methylpyrazin-2-yl)-1H-pyrrolo[2,3-b]pyridin-5-yl)(4-fluoropiperidin-1-yl)methanone]	< 0.1 µM
O=C(c1cnc2c(ccn2-c2ccc3c(c2)OCO3)c1)N1CCC(F)CC1 [A-298]	< 0.1 µM
COc1ccc(-n2c(C)nc3cc(C(=O)N4CCC(F)CC4)ccc32)cc1 [A-303]	< 0.1 µM
COc1ccc(-n2ccc3cc(C(=O)N4CCC(F)CC4)ccc32)cc1 [A-304]	< 0.1 µM
COc1ccc(-n2cc(C)c3cc(C(=O)N4CCC(F)CC4)ccc32)cc1 [A-305, (4-fluoropiperidin-1-yl)(1-(4-methoxyphenyl)-3-methyl-1H-indol-5-yl)methanone]	< 0.1 µM
CCc1nc2cc(C(=O)N3CCC(F)CC3)ccc2n1-c1ccc(OC)cc1 [A-306]	< 0.1 µM
COc1cccc(-c2cn(C)c3cc(C(=O)N4CCC(F)CC4)cnc23)c1 [A-307, (4-fluoropiperidin-1-yl)(3-(3-methoxyphenyl)-1-methyl-1H-pyrrolo[3,2-b]pyridin-6-yl)methanone]	0.1 to 1 µM
COc1ccccc1-c1cn(C)c2cc(C(=O)N3CCC(F)CC3)cnc12 [A-308, (4-fluoropiperidin-1-yl)(3-(2-methoxyphenyl)-1-methyl-1H-pyrrolo[3,2-b]pyridin-6-yl)methanone]	≥ 1 µM
COc1ccc(-n2c(C)nc3cc(C(=O)N4CCCCC4)ccc32)cc1 [A-310]	< 0.1 µM
CCC(CC)n1cnc2cc(C(=O)N3CCCCC3)ccc21 [A-311]	< 0.1 µM
COc1ccc(-n2nnc3cc(C(=O)N4CCC(F)CC4)ccc32)cc1 [A-312, (4-fluoropiperidin-1-yl)(1-(4-methoxyphenyl)-1H-benzo[d][1,2,3]triazol-5-yl)methanone]	< 0.1 µM

More lines, now with the values ahead:

IC50	SMILES
< 0.1 µM	O=C(Nc1cncc(-n2ccc3cc(C(=O)N4CCC(F)(F)CC4)cnc32)c1)c1ccno1 [A-256]
< 0.1 µM	O=C(Nc1ccno1)c1cncc(-n2ccc3cc(C(=O)N4CCC(F)(F)CC4)cnc32)c1 [A-257, 5-(5-(4,4-difluoropiperidine-1-carbonyl)-1H-pyrrolo[2,3-b]pyridin-1-yl)-N-(isoxazol-5-yl)nicotinamide]
< 0.1 µM	O=C(Nc1ccno1)c1ccc(-n2ccc3cc(C(=O)N4CCC(F)(F)CC4)cnc32)cn1 [A-258]
< 0.1 µM	O=C(NCCO)c1cccc(-n2ccc3cc(C(=O)N4CCC(F)(F)CC4)cnc32)c1 [A-263, 3-(5-(4,4-difluoropiperidine-1-carbonyl)-1H-pyrrolo[2,3-b]pyridin-1-yl)-N-(2-hydroxyethyl)benzamide]
< 0.1 µM	Cc1nc(-c2cncc(-n3ccc4cc(C(=O)N5CCC(F)(F)CC5)cnc43)c2)no1 [A-265, (4,4-difluoropiperidin-1-yl)(1-(5-(5-methyl-1,2,4-oxadiazol-3-yl)pyridin-3-yl)-1H-pyrrolo[2,3-b]pyridin-5-yl)methanone]
< 0.1 µM	O=C(c1cnc2c(ccn2-c2cncc(N3CCOC3=O)c2)c1)N1CCC(F)(F)CC1 [A-267]
< 0.1 µM	NC[C@@H]1CN(c2cncc(-n3ccc4cc(C(=O)N5CCC(F)(F)CC5)cnc43)c2)C(=O)O1 [A-270]
< 0.1 µM	O=C(c1cnc2c(ccn2-c2cncc(NS(=O)(=O)C3CC3)c2)c1)N1CCC(F)(F)CC1 [A-274, N-(5-(5-(4,4-difluoropiperidine-1-carbonyl)-1H-pyrrolo[2,3-b]pyridin-1-yl)pyridin-3-yl)cyclopropanesulfonamide]
< 0.1 µM	CCOC(=O)Nc1cncc(-n2ccc3cc(C(=O)N4CCC(F)(F)CC4)cnc32)c1 [A-275, ethyl (5-(5-(4,4-difluoropiperidine-1-carbonyl)-1H-pyrrolo[2,3-b]pyridin-1-yl)pyridin-3-yl)carbamate]
< 0.1 µM	NC(=O)[C@@H]1CCCN1C(=O)c1cccc(-n2ccc3cc(C(=O)N4CCC(F)(F)CC4)cnc32)c1 [A-276, (S)-1-(3-(5-(4,4-difluoropiperidine-1-carbonyl)-1H-pyrrolo[2,3-b]pyridin-1-yl)benzoyl)pyrrolidine-2-carboxamide]
< 0.1 µM	CC(C)(C(N)=O)c1cncc(-n2ccc3cc(C(=O)N4CCC(F)(F)CC4)cnc32)c1 [A-277, 2-(5-(5-(4,4-difluoropiperidine-1-carbonyl)-1H-pyrrolo[2,3-b]pyridin-1-yl)pyridin-3-yl)-2-methylpropanamide]
< 0.1 µM	O=C(Nc1cc(C2CC2)[nH]n1)c1cccc(-n2ccc3cc(C(=O)N4CCC(F)(F)CC4)cnc32)c1 [A-282, N-(5-cyclopropyl-1H-pyrazol-3-yl)-3-(5-(4,4-difluoropiperidine-1-carbonyl)-1H-pyrrolo[2,3-b]pyridin-1-yl)benzamide]
< 0.1 µM	O=C(Nc1ccn(C2CC2)n1)c1cccc(-n2ccc3cc(C(=O)N4CCC(F)(F)CC4)cnc32)c1 [A-283, N-(1-cyclopropyl-1H-pyrazol-3-yl)-3-(5-(4,4-difluoropiperidine-1-carbonyl)-1H-pyrrolo[2,3-b]pyridin-1-yl)benzamide]
< 0.1 µM	O=C(Nc1ccn(C2CC2)n1)c1cncc(-n2ccc3cc(C(=O)N4CCC(F)(F)CC4)cnc32)c1 [A-284, N-(1-cyclopropyl-1H-pyrazol-3-yl)-5-(5-(4,4-difluoropiperidine-1-carbonyl)-1H-pyrrolo[2,3-b]pyridin-1-yl)nicotinamide]
< 0.1 µM	O=C(Nc1cc(C2CC2)[nH]n1)c1cncc(-n2ccc3cc(C(=O)N4CCC(F)(F)CC4)cnc32)c1 [A-285, N-(5-cyclopropyl-1H-pyrazol-3-yl)-5-(5-(4,4-difluoropiperidine-1-carbonyl)-1H-pyrrolo[2,3-b]pyridin-1-yl)nicotinamide]
< 0.1 µM	O=C(O)c1cccc(-n2ccc3cc(C(=O)N4CCC(F)(F)CC4)cnc32)c1 [A-287, 3-(5-(4,4-difluoropiperidine-1-carbonyl)-1H-pyrrolo[2,3-b]pyridin-1-yl)benzoic acid]
< 0.1 µM	CC(C)(C#N)c1cncc(-n2ccc3cc(C(=O)N4CCC(F)(F)CC4)cnc32)c1 [A-289, 2-(5-(5-(4,4-difluoropiperidine-1-carbonyl)-1H-pyrrolo[2,3-b]pyridin-1-yl)pyridin-3-yl)-2-methylpropanenitrile]
< 0.1 µM	O=C(c1cnc2c(ccn2-c2cncc(-c3nc[nH]n3)c2)c1)N1CCC(F)(F)CC1 [A-292, (1-(5-(1H-1,2,4-triazol-3-yl)pyridin-3-yl)-1H-pyrrolo[2,3-b]pyridin-5-yl)(4,4-difluoropiperidin-1-yl)methanone]
< 0.1 µM	O=C(c1cnc2c(ccn2-c2cccc(C(=O)N3CC[S+]([O-])C3)c2)c1)N1CCC(F)(F)CC1 (centres unmarked) [A-294, (4,4-difluoropiperidin-1-yl)(1-(3-(1-oxidothiazolidine-3-carbonyl)phenyl)-1H-pyrrolo[2,3-b]pyridin-5-yl)methanone]
